Experimental data from patent publication US10336739B2, “4-hydroxy-3-(heteroaryl)pyridine-2-one APJ agonists” (BRISTOL-MYERS SQUIBB COMPANY, priority 2015, dated 2019).

Biological target: human APJ receptor (Homo sapiens (Human), UniProt P35414)
Assay: Intracellular cAMP accumulation assay (APJ hcAMP, HTRF)
Assay type: cell-based
Conditions: HEK293 cells stably expressing human APJ receptor; inhibition of forskolin-mediated cAMP production; read-out: Human APJ cAMP EC50 Potency range
Procedure, shortened: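 HEK293 cells stably expressing human APJ, 5,000 per well, exposed to compound with […] IBMX and 2 μM forskolin for 30 minutes at room temperature. cAMP measured by HTRF after lysis and 60 min detection incubation. EC50 from sigmoidal variable-slope fits of inhibition of forskolin-induced cAMP, quantified against a cAMP standard curve.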

Chain of human APJ receptor (P35414 whole entry): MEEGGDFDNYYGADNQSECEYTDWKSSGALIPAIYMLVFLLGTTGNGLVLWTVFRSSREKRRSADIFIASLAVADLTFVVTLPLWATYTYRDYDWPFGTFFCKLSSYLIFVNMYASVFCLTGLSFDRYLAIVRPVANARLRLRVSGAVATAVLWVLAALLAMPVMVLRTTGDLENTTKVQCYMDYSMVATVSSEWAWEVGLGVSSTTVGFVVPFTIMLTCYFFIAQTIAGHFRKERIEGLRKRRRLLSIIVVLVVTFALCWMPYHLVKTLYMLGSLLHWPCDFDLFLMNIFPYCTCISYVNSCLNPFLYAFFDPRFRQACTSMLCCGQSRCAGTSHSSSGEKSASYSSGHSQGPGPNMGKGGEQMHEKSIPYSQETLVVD

| EC50 [nM] | SMILES |
| --- | --- |
| 10 to 100 | CCCCc1[nH]c(=O)c(-c2nnc(Cc3csc(C)n3)o2)c(O)c1-c1cccc(CC)c1 [Example 137, 6-butyl-5-(3-ethylphenyl)-4-hydroxy-3-{5-[(2-methyl-1,3-thiazol-4-yl)methyl]-1,3,4-oxadiazol-2-yl}-1,2-dihydropyridin-2-one] |

Same assay, conditions: HEK293 cells stably expressing human APJ receptor; inhibition of forskolin-mediated cAMP production; read-out: hAPJ cAMP EC50 Potency range

| SMILES | EC50 [nM] |
| --- | --- |
| CCOCc1nc(O)c(-c2nnc(Cc3ccc(Cl)c(F)c3)o2)c(O)c1-c1c(OC)cccc1OC [Example 122, 3-{5-[(4-chloro-3-fluorophenyl)methyl]-1,3,4-oxadiazol-2-yl}-5-(2,6-dimethoxyphenyl)-6-(ethoxymethyl) pyridine-2,4-diol] | 0.01 to 10 |
| CCOCc1nc(O)c(-c2nnc(Cc3ccc(Cl)cc3F)o2)c(O)c1-c1c(OC)cccc1OC [Example 123, 3-{5-[(4-chloro-2-fluorophenyl)methyl]-1,3,4-oxadiazol-2-yl}-5-(2,6-dimethoxyphenyl)-6-(ethoxymethyl) pyridine-2,4-diol] | 0.01 to 10 |
| CCOCc1nc(O)c(-c2nnc(Cc3ccc(F)cn3)o2)c(O)c1-c1c(OC)cccc1OC [Example 124, 5-(2,6-dimethoxyphenyl)-6-(ethoxymethyl)-3-{5-[(5-fluoropyridin-2-yl)methyl]-1,3,4-oxadiazol-2-yl}pyridine-2,4-diol] | 0.01 to 10 |
| CCOCc1nc(O)c(-c2nnc(Cn3ccnc3)o2)c(O)c1-c1c(OC)cccc1OC [Example 125, 5-(2,6-dimethoxyphenyl)-6-(ethoxymethyl)-3-[5-(1H-imidazol-1-ylmethyl)-1,3,4-oxadiazol-2-yl]pyridine-2,4-diol] | 10 to 100 |
| CCOCc1nc(O)c(-c2nnc(Cc3ccc(C)c(F)c3)o2)c(O)c1-c1c(OC)cccc1OC [Example 126, 5-(2,6-dimethoxyphenyl)-6-(ethoxymethyl)-3-{5-[(3-fluoro-4-methylphenyl)methyl]-1,3,4-oxadiazol-2-yl}pyridine-2,4-diol] | 0.01 to 10 |
| CCOCc1nc(O)c(-c2nnc(Cc3ccc(Cl)cn3)o2)c(O)c1-c1c(OC)cccc1OC [Example 127, 3-{5-[(5-chloropyridin-2-yl)methyl]-1,3,4-oxadiazol-2-yl}-5-(2,6-dimethoxyphenyl)-6-(ethoxymethyl) pyridine-2,4-diol] | 0.01 to 10 |
| CCOCc1nc(O)c(-c2nnc(Cn3ccc(-c4ccccc4)n3)o2)c(O)c1-c1c(OC)cccc1OC [Example 128, 5-(2,6-dimethoxyphenyl)-6-(ethoxymethyl)-3-{5-[(3-phenyl-1H-pyrazol-1-yl)methyl]-1,3,4-oxadiazol-2-yl}pyridine-2,4-diol] | 0.01 to 10 |
| CCOCc1nc(O)c(-c2nnc(Cn3ccc(C(F)(F)F)n3)o2)c(O)c1-c1c(OC)cccc1OC [Example 129, 5-(2,6-dimethoxyphenyl)-6-(ethoxymethyl)-3-(5-{[3-(trifluoromethyl)-1H-pyrazol-1-yl]methyl}-1,3,4-oxadiazol-2-yl)pyridine-2,4-diol] | 10 to 100 |
| CCOCc1nc(O)c(-c2nnc(Cc3cnn(C)c3)o2)c(O)c1-c1c(OC)cccc1OC [Example 130, 5-(2,6-dimethoxyphenyl)-6-(ethoxymethyl)-3-{5-[(1-methyl-1H-pyrazol-4-yl)methyl]-1,3,4-oxadiazol-2-yl}pyridine-2,4-diol] | 10 to 100 |
| CCOCc1nc(O)c(-c2nnc(Cc3ccc(F)nc3)o2)c(O)c1-c1c(OC)cccc1OC [Example 131, 5-(2,6-dimethoxyphenyl)-6-(ethoxymethyl)-3-{5-[(6-fluoropyridin-3-yl)methyl]-1,3,4-oxadiazol-2-yl}pyridine-2,4-diol] | 0.01 to 10 |
| CCOCc1nc(O)c(-c2nnc(Cc3n[nH]c4ccccc34)o2)c(O)c1-c1c(OC)cccc1OC [Example 132, 5-(2,6-dimethoxyphenyl)-6-(ethoxymethyl)-3-[5-(1H-indazol-3-ylmethyl)-1,3,4-oxadiazol-2-yl]pyridine-2,4-diol] | 0.01 to 10 |
| CCOCc1nc(O)c(-c2nnc(Cn3nnc4ccccc43)o2)c(O)c1-c1c(OC)cccc1OC [Example 133, 3-[5-(1H-1,2,3-benzotriazol-1-ylmethyl)-1,3,4-oxadiazol-2-yl]-5-(2,6-dimethoxyphenyl)-6-(ethoxymethyl) pyridine-2,4-diol] | 0.01 to 10 |
| CCOCc1nc(O)c(-c2nnc(Cn3ncc4ccccc43)o2)c(O)c1-c1c(OC)cccc1OC [Example 134, 5-(2,6-dimethoxyphenyl)-6-(ethoxymethyl)-3-[5-(1H-indazol-1-ylmethyl)-1,3,4-oxadiazol-2-yl]pyridine-2,4-diol] | 0.01 to 10 |
| CCOCc1nc(O)c(-c2nnc(Cc3ccc(F)cc3)o2)c(O)c1-c1c(OC)cccc1OC [Example 135, 5-(2,6-dimethoxyphenyl)-6-(ethoxymethyl)-3-{5-[(4-fluorophenyl)methyl]-1,3,4-oxadiazol-2-yl}pyridine-2,4-diol] | 0.01 to 10 |
| CCOCc1nc(O)c(-c2nnc(Cn3ccc4ccccc43)o2)c(O)c1-c1c(OC)cccc1OC [Example 136, 5-(2,6-dimethoxyphenyl)-6-(ethoxymethyl)-3-[5-(1H-indol-1-ylmethyl)-1,3,4-oxadiazol-2-yl]pyridine-2,4-diol] | 10 to 100 |
| CCCCc1nc(O)c(-c2nnc(Cc3noc4ccccc34)o2)c(O)c1-c1ccccc1 [Example 138, 3-[5-(1,2-benzoxazol-3-ylmethyl)-1,3,4-oxadiazol-2-yl]-6-butyl-5-phenylpyridine-2,4-diol] | 10 to 100 |
| CCCCc1nc(O)c(-c2nnc(Cc3ccc(F)c(F)c3)o2)c(O)c1-c1cccc(OC)c1 [Example 139, 6-butyl-3-{5-[(3,4-difluorophenyl)methyl]-1,3,4-oxadiazol-2-yl}-5-(3-methoxyphenyl) pyridine-2,4-diol] | 10 to 100 |
| CCCCc1nc(O)c(-c2nnc(Cc3ccc(F)c(F)c3)o2)c(O)c1-c1cccc(CC)c1 [Example 140, 6-butyl-3-{5-[(3,4-difluorophenyl)methyl]-1,3,4-oxadiazol-2-yl}-5-(3-ethylphenyl) pyridine-2,4-diol] | 10 to 100 |
| CCCCc1nc(O)c(-c2nnc(Cc3ccc(F)c(F)c3)o2)c(O)c1-c1cccc(OC(F)(F)F)c1 [Example 141, 6-butyl-3-{5-[(3,4-difluorophenyl)methyl]-1,3,4-oxadiazol-2-yl}-5-[3-(trifluoromethoxy)phenyl]pyridine-2,4-diol] | 10 to 100 |
| CCCCc1nc(O)c(-c2nnc(Cc3ccc(F)c(F)c3)o2)c(O)c1-c1cccc(OCc2ccccc2)c1 [Example 142, 5-[3-(benzyloxy)phenyl]-6-butyl-3-{5-[(3,4-difluorophenyl)methyl]-1,3,4-oxadiazol-2-yl}pyridine-2,4-diol] | 10 to 100 |

Second part, the molecule after the results:

| EC50 [nM] | SMILES |
| --- | --- |
| 0.01 to 10 | CCCCc1nc(O)c(-c2nnc(Cc3ccc(F)c(F)c3)o2)c(O)c1-c1cccc(CO)c1 [Example 143, 6-butyl-3-{5-[(3,4-difluorophenyl)methyl]-1,3,4-oxadiazol-2-yl}-5-[3-(hydroxymethyl)phenyl]pyridine-2,4-diol] |
| 10 to 100 | CCCCc1nc(O)c(-c2nnc(Cc3ccc(F)c(F)c3)o2)c(O)c1C1=CCCCC1 [Example 144, 6-butyl-5-(cyclohex-1-en-1-yl)-3-{5-[(3,4-difluorophenyl)methyl]-1,3,4-oxadiazol-2-yl}pyridine-2,4-diol] |
| 10 to 100 | CCCCc1nc(O)c(-c2nnc(Cc3ccc(F)c(F)c3)o2)c(O)c1-c1cccc(C(C)C)c1 [Example 145, 6-butyl-3-{5-[(3,4-difluorophenyl)methyl]-1,3,4-oxadiazol-2-yl}-5-[3-(propan-2-yl)phenyl]pyridine-2,4-diol] |
| 10 to 100 | CCCCc1nc(O)c(-c2nnc(Cc3ccc(F)c(F)c3)o2)c(O)c1-c1cccc(COC)c1 [Example 146, 6-butyl-3-{5-[(3,4-difluorophenyl)methyl]-1,3,4-oxadiazol-2-yl}-5-[3-(methoxymethyl)phenyl]pyridine-2,4-diol] |
| 10 to 100 | CCCCc1nc(O)c(-c2nnc(Cc3ccc(F)c(F)c3)o2)c(O)c1-c1cccc(C(=O)NC(C)C)c1 [Example 147, 3-(2-butyl-5-{5-[(3,4-difluorophenyl)methyl]-1,3,4-oxadiazol-2-yl}-4,6-dihydroxypyridin-3-yl)-N-(propan-2-yl)benzamide] |
| 0.01 to 10 | CCCCc1[nH]c(=O)c(-c2nnc(Cc3csc(C)n3)o2)c(O)c1-c1cccc(C(C)C)c1 [Example 148, 6-butyl-4-hydroxy-3-{5-[(2-methyl-1,3-thiazol-4-yl)methyl]-1,3,4-oxadiazol-2-yl}-5-[3-(propan-2-yl)phenyl]-1,2-dihydropyridin-2-one] |
| 0.01 to 10 | CCCCc1[nH]c(=O)c(-c2nnc(Cc3csc(C)n3)o2)c(O)c1-c1cccc(C(=O)NC(C)C)c1 [Example 149, 3-(2-butyl-4-hydroxy-5-{5-[(2-methyl-1,3-thiazol-4-yl)methyl]-1,3,4-oxadiazol-2-yl}-6-oxo-1,6-dihydropyridin-3-yl)-N-(propan-2-yl)benzamide] |
| 0.01 to 10 | CCCCc1[nH]c(=O)c(-c2nnc(Cc3csc(C)n3)o2)c(O)c1-c1cccc(C2CC2)c1 [Example 150, 6-butyl-5-(3-cyclopropylphenyl)-4-hydroxy-3-{5-[(2-methyl-1,3-thiazol-4-yl)methyl]-1,3,4-oxadiazol-2-yl}-1,2-dihydropyridin-2-one] |
| 0.01 to 10 | CCCCc1[nH]c(=O)c(-c2nnc(Cc3csc(C)n3)o2)c(O)c1-c1cccc(OC)c1 [Example 151, 6-butyl-4-hydroxy-5-(3-methoxyphenyl)-3-{5-[(2-methyl-1,3-thiazol-4-yl)methyl]-1,3,4-oxadiazol-2-yl}-1,2-dihydropyridin-2-one] |
| 10 to 100 | CCCCc1[nH]c(=O)c(-c2nnc(Cc3csc(C)n3)o2)c(O)c1-c1cccc(CO)c1 [Example 152, 6-butyl-4-hydroxy-5-[3-(hydroxymethyl)phenyl]-3-{5-[(2-methyl-1,3-thiazol-4-yl)methyl]-1,3,4-oxadiazol-2-yl}-1,2-dihydropyridin-2-one] |
